Legend:
[1] = system: BMEC; assay: Cytotoxicity against BMEC by sulforhodamine B test; assay type: cell-based; conditions: Bos taurus
[2] = Displacement of [3H]colchicine from tubulin by scintillation proximity assay
[3] = system: HT-29; assay: Cytotoxicity against human HT29 cells by sulforhodamine B test; assay type: functional, cell-based
[4] = system: NCI-H460; assay: Cytotoxicity against human H460 cells by sulforhodamine B test; assay type: functional, cell-based
[5] = system: HT-29; assay: Cell cycle arrest in human HT29 cells assessed as accumulation at G0/G1 phase at 0.5 uM after 24 hrs by flow cytometry assay; assay type: functional
[6] = system: HT-29; assay: Cell cycle arrest in human HT29 cells assessed as accumulation at S phase at 0.5 uM after 24 hrs by flow cytometry assay; assay type: functional
[7] = system: HT-29; assay: Cell cycle arrest in human HT29 cells assessed as accumulation at G2/M phase at 0.5 uM after 24 hrs by flow cytometry assay; assay type: functional

Row | SMILES | IC50 [1] [nM] | IC50 [2] [µM] | IC50 [3] [nM] | IC50 [4] [nM] | Activity [5] [%] | Activity [6] [%] | Activity [7] [%]
1 | COc1cc(/C=C\c2cc(O)c3ccsc3c2)cc2c1OCO2 | 880 | 4.9 |  |  |  |  | 
2 | COc1cc2c(c(OC)c1OC)-c1ccc(OC)c(=O)cc1[C@@H](NC(C)=O)CC2 [COLCHICINE] |  | 1.7 |  |  |  |  | 
3 | COc1ccc(/C=C\c2cc(OC)c3c(c2)OCO3)cc1O [Combretastatin A-2] | 48 |  | > 1000 | 40 |  |  | 
4 | COc1ccc(/C=C/c2cc(OC)c3ccoc3c2)cc1O | > 10000 | 6.2 |  |  |  |  | 
5 | COc1cc(/C=C\c2cc(O)c3ccoc3c2)cc2c1OCO2 | > 3000 | 7.7 |  |  |  |  | 
6 | COc1ccc(/C=C\c2cc(OC)c3ccsc3c2)cc1O | 17 | 0.02 | 260 | 13 |  |  | 
7 | COc1cc(/C=C\c2cc(O)c3ccoc3c2)cc(OC)c1 | 800 | 4 |  |  |  |  | 
8 | COc1ccc(/C=C\c2cc(OC)c3occc3c2)cc1O | 35 | 0.05 | 590 | 12 |  |  | 
9 | COc1ccc(/C=C\c2cc(OC)c(OC)c(OC)c2)cc1O [COMBRETASTATIN A4] | 3.7 | 0.1 | 118 | 1.2 |  |  | 
10 | COc1cc(/C=C\c2cc(O)c3ccsc3c2)cc2sccc12 | 250 |  |  | 312 |  |  | 
11 | COc1ccc(/C=C\c2ccc3c(c2)C(C)(C)CCC3(C)C)cc1O | > 10000 |  |  |  |  |  | 
12 | COc1ccc(/C=C\c2cc(OC)c3ccsc3c2)cc1N.Cl | 20 | 6.2 | 21 | 19 | 28 | 22 | 50
13 | COc1cc(/C=C\c2cc(O)c3ccsc3c2)cc(OC)c1 | 110 | 3.8 |  |  |  |  | 
14 | COc1ccc(/C=C\c2cc(OC)c3ccsc3c2)cc1 | 123 |  |  | 110 |  |  | 
15 | COc1ccc(/C=C\c2cc(OC)c3ccoc3c2)cc1O | 35 | 0.02 | 420 | 19 |  |  | 

From ChEMBL document CHEMBL1140102, “Novel A-ring and B-ring modified combretastatin A-4 (CA-4) analogues endowed with interesting cytotoxic activity” (J Med Chem, 2008)
